Drawing on article doi:10.1101/2022.10.01.510427v1 (biorxiv, 2022), this text covers IC50 for 1 molecule.

Each structure is given as a SMILES string.

The target of this assay is T1, Gaussia luciferase (GLuc) (Gaussia princeps (in: crustaceans), UniProt Q9BLZ2).
T1 sequence (Q9BLZ2 18-185): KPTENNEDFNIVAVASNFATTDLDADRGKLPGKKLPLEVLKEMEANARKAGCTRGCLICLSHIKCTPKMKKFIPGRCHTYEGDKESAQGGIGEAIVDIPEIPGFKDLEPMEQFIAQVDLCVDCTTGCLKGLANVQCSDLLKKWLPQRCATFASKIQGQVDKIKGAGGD
In words: bioluminescence inhibition assay. The format is biochemical.

One may read the IC50 as the concentration needed to halve the response being measured. Lower therefore signals greater potency in that assay. `O=c1n(Cc2ccc(O)cc2)nc2c(Cc3ccccc3)nc(-c3ccc(O)cc3)cn12` [Aza-CTZ] came in with an IC50 of 10 to 100 µM.
